Data set [1] deals with A549 (lung carcinoma). Description: MTT cell viability test, A549. Type of data set: cell-based, Human. The conditions noted are these: Homo sapiens, A549, 72 h, read-out: IC50, A549. As for the experimental part:
(§1) Human cell cultures of tumor origin (A549 (lung carcinoma), HCT116 (colon adenocarcinoma), MCF7 (breast cancer), RD (embryonic rhabdomyosarcoma)), and the line of non-transformed cells HEK293 (embryonic kidney) provided by the Laboratory of Tumor Cell Genetics at the N.N. Blokhin Russian Cancer Research Institute, as well as by the Institute of Cytology of the Russian Academy of Sciences, were grown in DMEM (Gibco, Scotland, UK) and MEM (Gibco, Scotland, UK) containing fetal calf serum (10% by volume) (ThermoFisher Scientific, Paisley, UK), L-glutamine (2 mM) (Gibco, Scotland, UK), and penicillin-streptomycin (1% by volume) (PanEco, Moscow, Russia).
(§2) Cellular viability was determined by the MTT test. […] After 24 h of incubation, various concentrations of the test compounds dissolved in DMSO (≤1%) were added to the cell cultures, the solvent was added to the control wells in an equal volume, and then the cells were cultured under the same conditions for 72 h. After the incubation time, MTT (3-(4,5-dimethylthiazol-2-yl)-2,5-diphenyltetrazolium bromide, 5 mg/mL) was added to each well, and the plates were further incubated for 2 h (until a characteristic color appeared). Then, the formazan granules were dissolved in DMSO.
(§3) Using a plate analyzer (Cytation3, BioTech Instruments Inc., USA), the optical density was determined at λ = 530 nm.
On the technique in general: Tetrazolium dyes change colour on reduction, which living cells bring about.

Data set [2] concerns HCT116 (colon adenocarcinoma). Description: MTT cell viability test, HCT116. Format: cell-based, Human. The conditions noted are these: Homo sapiens, HCT-116, 72 h, read-out: IC50, HCT116. As for the experimental part:
as §1, §2, §3

The test system of data set [3] is MCF7 (breast cancer). Description: MTT cell viability test, MCF7. The conditions noted are these: Homo sapiens, MCF7, 72 h, read-out: IC50, MCF7. Format: cell-based, Human. The protocol: as §1, §2, §3
Data set [4] relates to RD (embryonic rhabdomyosarcoma). The data set is described as follows: MTT cell viability test, RD. The conditions noted are these: Homo sapiens, 72 h, read-out: IC50, RD. Type of data set: cell-based, Human. As for the experimental part:
as §1, §2, §3

Data set [5] deals with HEK293 (embryonic kidney). The data set is described as follows: MTT cell viability test, non-transformed HEK293. Type of data set: cell-based, Human. Conditions: Homo sapiens, HEK293, 72 h, read-out: IC50, HEK293. As for the experimental part: as §1, §2, §3
Data set [6] addresses T1, complex II of the electron transport chain (Rattus norvegicus, UniProt P21913+Q641Z9+Q6PCT8+Q920L2).
T1 construct: Rat heart mitochondria were isolated by differential centrifugation; from tissue; host or cells: rat heart mitochondria
Description: Respiratory chain complex II, OCR of isolated rat heart mitochondria (Seahorse). Type of data set: biochemical. Conditions: isolated rat heart mitochondria 10 μg/well, compounds at 30 μM. The protocol:
(§4) Rat heart mitochondria were isolated by differential centrifugation using ice-cold buffer containing KCl (120 mM) and HEPES (20 mM), pH = 7.4, and a trypsin inhibitor. The mitochondrial yield ranged from 5 to 10 mg/mL of protein in the heart sediment. Mitochondria were stored in plastic containers at 4 °C.
(§5) The effect of the compounds on the functioning of the electron transport chain complexes was carried out using an Agilent Seahorse XF96e Analyzer (Seahorse Bioscience, Billerica, MA, USA) according to their ability to change the rate of oxygen uptake by isolated rat heart mitochondria (10 μg/well). The following modulators were used: activators of complex I of the electron transport chain, NADH dehydrogenase,—glutamate/malate; rotenone (2 μM) (Sigma Aldrich, Saint Louis, USA)—a tissue respiration blocker that stops the transfer of electrons from the reduced form of NADH to cytochrome b, was used as complex I inhibitor; potassium succinate ([…]) (Dia-M, Moscow, Russia), which is a substrate of complex II of the electron transport chain, made it possible to assess mitochondrial respiration mediated by succinate dehydrogenase; complex III (ubiquinol-cytochrome c-oxidoreductase) inhibitor—a blocker of cellular respiration antimycin A (Sigma Aldrich, Saint Louis, USA), as well as ascorbate/TMPD (0.5 μM) (Sigma Aldrich, Saint Louis, USA), allowed us to evaluate the cytochrome-c-oxidase mediated respiration of organelles.

For data set [7], the target named is T2, cytochrome-c-oxidase complex of the mitochondrial respiratory chain (IV) (Rattus norvegicus, UniProt P00406+P05503+P05505).
T2 construct: Rat heart mitochondria were isolated by differential centrifugation; from tissue; host or cells: rat heart mitochondria
Description: Respiratory chain complex IV, OCR of isolated rat heart mitochondria (Seahorse). Format: biochemical. The conditions noted are these: isolated rat heart mitochondria 10 μg/well, compounds at 30 μM. As for the experimental part: as §4, §5

Data set [8] relates to rat heart mitochondria. The data set is described as follows: Mitochondrial swelling. Type of data set: biochemical. The conditions noted are these: rat heart mitochondria 0.5 mg/mL, compounds at 100 μM, Ca2+ 25 μM. The protocol:
as §4
Mitochondrial swelling was recorded by the light transmission of the rat heart mitochondrial suspension at λ = 540 nm using a Victor 3 plate analyzer (Perkin Elmer, Germany). The swelling rate was estimated as △A540/min and was calculated as the tangent of the angle of the steepest dependence curve part △A540 versus time.

Data set [9] deals with lipid peroxidation (LPO) of rat brain homogenate. Description: Lipid peroxidation of rat brain homogenate (TBA test). Type of data set: biochemical. Conditions: rat brain homogenate 2 mg/mL, Fe2+ 500 μM, compound 100 μM. As for the experimental part:
To obtain a brain homogenate, decapitation of rats anesthetized in advance with CO2 was performed using a guillotine. The brain was homogenized in a buffer containing KCl (120 mM) and HEPES (20 mM) (Gibco, Scotland, UK), pH = 7.4, at 4 °C and centrifuged at 1500 rpm to obtain a supernatant.
To study the effect of compounds on the process of lipid peroxidation (LPO) of rat brain homogenate, we used a modified version of the TBA test, which is based on the reaction of 2-thiobarbituric acid with the final LPO product—malonic dialdehyde (MDA). According to the experimental scheme, the well of the plate contained the studied compounds (100 μM), rat brain homogenate (2 mg/mL), as well as 500 μM ferrous iron ions (FeSO4 × […]). After 30 min of incubation at 37 °C, TBA reagent was added to all samples, incubated for 90 min at 90 °C, and centrifuged at 6000 rpm for 15 min. The optical density of the selected supernatant was measured on a Victor 3 plate analyzer (Perkin Elmer, Germany […]) at λ = 540 nm.

Each structure is given as a SMILES string. Where two headings read alike, the source gives them in different places.

T1 sequence (Q920L2 35-656): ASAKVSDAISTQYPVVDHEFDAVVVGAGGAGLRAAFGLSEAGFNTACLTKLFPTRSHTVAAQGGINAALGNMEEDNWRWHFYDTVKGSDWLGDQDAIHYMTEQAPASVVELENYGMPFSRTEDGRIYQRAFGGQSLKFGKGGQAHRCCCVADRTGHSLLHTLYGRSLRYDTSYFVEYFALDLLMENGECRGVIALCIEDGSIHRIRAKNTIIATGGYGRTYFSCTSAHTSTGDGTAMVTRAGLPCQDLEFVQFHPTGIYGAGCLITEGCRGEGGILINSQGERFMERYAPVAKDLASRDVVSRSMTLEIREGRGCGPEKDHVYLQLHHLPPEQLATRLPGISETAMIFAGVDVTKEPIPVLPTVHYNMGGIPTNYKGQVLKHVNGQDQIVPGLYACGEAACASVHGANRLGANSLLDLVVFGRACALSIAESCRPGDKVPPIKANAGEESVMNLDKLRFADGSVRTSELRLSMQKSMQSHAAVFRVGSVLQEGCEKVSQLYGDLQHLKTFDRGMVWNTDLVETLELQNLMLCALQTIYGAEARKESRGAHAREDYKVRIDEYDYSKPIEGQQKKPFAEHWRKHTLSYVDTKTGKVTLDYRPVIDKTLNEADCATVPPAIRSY
T1 sequence (P21913 31-282): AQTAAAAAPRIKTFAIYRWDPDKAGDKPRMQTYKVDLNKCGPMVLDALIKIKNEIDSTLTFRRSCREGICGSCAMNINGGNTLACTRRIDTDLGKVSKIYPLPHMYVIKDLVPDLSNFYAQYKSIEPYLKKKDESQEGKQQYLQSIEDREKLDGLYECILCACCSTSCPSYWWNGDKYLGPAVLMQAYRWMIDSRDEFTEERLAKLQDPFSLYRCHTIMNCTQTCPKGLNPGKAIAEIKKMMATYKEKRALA
T1 sequence (Q641Z9 30-169 limits assumed): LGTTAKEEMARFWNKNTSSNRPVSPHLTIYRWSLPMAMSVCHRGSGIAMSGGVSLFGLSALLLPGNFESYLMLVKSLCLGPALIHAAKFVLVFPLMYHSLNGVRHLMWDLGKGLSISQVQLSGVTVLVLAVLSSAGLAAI
T1 sequence (Q6PCT8 57-159): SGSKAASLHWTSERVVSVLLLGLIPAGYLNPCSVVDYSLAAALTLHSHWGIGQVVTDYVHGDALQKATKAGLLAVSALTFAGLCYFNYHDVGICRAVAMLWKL
T2 sequence (P00406 whole entry, other chains not shown): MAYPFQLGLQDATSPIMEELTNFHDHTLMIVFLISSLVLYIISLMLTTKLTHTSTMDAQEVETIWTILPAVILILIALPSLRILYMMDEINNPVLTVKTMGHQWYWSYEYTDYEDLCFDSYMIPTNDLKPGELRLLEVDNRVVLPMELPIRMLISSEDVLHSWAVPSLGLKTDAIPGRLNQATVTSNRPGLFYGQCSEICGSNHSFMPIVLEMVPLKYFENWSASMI
T2 sequence (P05505 whole entry, other chains not shown): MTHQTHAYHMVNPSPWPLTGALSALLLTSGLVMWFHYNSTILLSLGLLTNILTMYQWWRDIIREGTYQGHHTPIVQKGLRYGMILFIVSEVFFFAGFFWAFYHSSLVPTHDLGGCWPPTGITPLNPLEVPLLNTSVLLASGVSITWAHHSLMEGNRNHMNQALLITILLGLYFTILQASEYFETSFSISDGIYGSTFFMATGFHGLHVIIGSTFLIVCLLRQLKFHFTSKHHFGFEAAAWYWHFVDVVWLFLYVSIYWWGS

`COc1cccc2c1C(=O)c1c(O)c3c(c(O)c1C2=O)C[C@@](O)(C(C)=O)C[C@@H]3O[C@H]1C[C@H](NC[C@H]2C(=O)O[C@@H]3C[C@@]4(C)CCC=C(C)C4=C[C@@H]32)[C@H](O)[C@H](C)O1` yielded a melting point of 152 to 158 °C.

In turn, `COc1cccc2c1C(=O)c1c(O)c3c(c(O)c1C2=O)C[C@@](O)(C(=O)CO)C[C@@H]3O[C@H]1C[C@H](NC[C@H]2C(=O)O[C@@H]3CC4=CCC[C@H](C)[C@@]4(C)[C@@H](O)[C@@H]32)[C@H](O)[C@H](C)O1` [Compound 7a, (8S,10S)-6,8,11-Trihydroxy-10-(((2R,4S,5S,6S)-5-hydroxy-4-((((3S,3aS,4S,4aR,5S,9aR)-4-hydroxy-4a,5-dimethyl-2-oxo-2,3,3a,4,4a,5,6,7,9,9a-decahydronaphtho[2,3-b]furan-3-yl)methyl)amino)-6-methyltetrahydro-2H-pyran-2-yl)oxy)-8-(2-hydroxyacetyl)-1-methoxy-7,8,9,10-tetrahydrotetracene-5,12-dione] returned a melting point of 170 to 175 °C. Also, the IC50 in data set [1] came to 5.43 ± 0.16 µM. In addition, the 50% inhibitory concentration (IC50) in [2] came out at 0.92 µM. In addition, in [3], the half-maximal inhibitory concentration (IC50) came out at 6.03 ± 0.11 µM. The concentration for half-maximal inhibition (IC50) in data set [4] is 4.22 ± 0.1 µM. Further, the IC50 in data set [5] was 10.5 ± 0.88 µM. The “Work of Respiratory Chain Complexes, % Decrease in OCR of Control, II” value (“Work … % Decrease in OCR of Control, II” below) in data set [6] was found to be 33.21 ± 3.84%. The “Work of Respiratory Chain Complexes, % Decrease in OCR of Control, IV” value (“Work … % Decrease in OCR of Control, IV” for short) in data set [7] amounted to 38.16 ± 0.84%. The “Mitochondrial Swelling, % of Ca2+-Induced Swelling” value (from here on “Mitochondrial Swelling, %”) in data set [8] is listed as “— (“—” indicates activity absence for compounds (≤10%) in a particular test)”.

`COc1cccc2c1C(=O)c1c(O)c3c(c(O)c1C2=O)C[C@@](O)(C(C)=O)C[C@@H]3O[C@H]1C[C@H](NC[C@H]2C(=O)O[C@@H]3CC4=CCC[C@H](C)[C@@]4(C)[C@@H](O)[C@@H]32)[C@H](O)[C@H](C)O1` [Compound 7b, (8S,10S)-8-Acetyl-6,8,11-trihydroxy-10-(((2R,4S,5S,6S)-5-hydroxy-4-((((3S,3aS,4S,4aR,5S,9aR)-4-hydroxy-4a,5-dimethyl-2-oxo-2,3,3a,4,4a,5,6,7,9,9a-decahydronaphtho[2,3-b]furan-3-yl)methyl)amino)-6-methyltetrahydro-2H-pyran-2-yl)oxy)-1-methoxy-7,8,9,10-tetrahydrotetracene-5,12-dione] came in with a melting point of 155 to 162 °C. Further, in data set [1], the 50% inhibitory concentration (IC50) was determined as 2.01 ± 0.09 µM. The 50% inhibitory concentration (IC50) in data set [2] was determined as 0.2 ± 0.01 µM. For the same compound, the IC50 in data set [3] was found to be 1.9 ± 0.07 µM. In addition, in data set [4], the IC50 came to 1.95 ± 0.01 µM. For the same compound, the IC50 in [5] amounted to 6.42 ± 0.21 µM. Also, the “Work … % Decrease in OCR of Control, II” value in [6] is 21.04 ± 4.22%. The “Work … % Decrease in OCR of Control, IV” value in [7] came out at 46.08 ± 3.42%. In data set [8], the “Mitochondrial Swelling, %” value is reported as “— (“—” indicates activity absence for compounds (≤10%) in a particular test)”.

In the case of `COc1cccc2c1C(=O)c1c(O)c3c(c(O)c1C2=O)C[C@@](O)(C(=O)CO)C[C@@H]3O[C@H]1C[C@H](NC[C@H]2C(=O)O[C@@H]3C[C@@]4(C)CCC=C(C)C4=C[C@@H]32)[C@H](O)[C@H](C)O1` [Compound 8a, (8S,10S)-10-(((2R,4S,5S,6S)-4-((((3S,3aR,8aR,9aR)-5,8a-Dimethyl-2-oxo-2,3,3a,7,8,8a,9,9a-octahydronaphtho[2,3-b]furan-3-yl)methyl)amino)-5-hydroxy-6-methyltetrahydro-2H-pyran-2-yl)oxy)-6,8,11-trihydroxy-8-(2-hydroxyacetyl)-1-methoxy-7,8,9,10-tetrahydrotetracene-5,12-dione], the melting point was in the range of 166 to 170 °C. Further, the concentration for half-maximal inhibition (IC50) in [1] turned out to be 1.87 ± 0.07 µM. The IC50 in data set [2] amounted to 0.43 ± 0.02 µM. The 50% inhibitory concentration (IC50) in data set [3] stood at 2.34 ± 0.01 µM. In addition, in [4], the IC50 was determined as 1.03 ± 0.02 µM. For the same compound, in [5], the 50% inhibitory concentration (IC50) was found to be 16.4 ± 1.07 µM. Further, the “Work … % Decrease in OCR of Control, II” value in data set [6] is on record as 27.58 ± 4.30%. Further, the “Work … % Decrease in OCR of Control, IV” value in data set [7] is 25.95 ± 4.43%. In addition, the “Mitochondrial Swelling, %” value in data set [8] is listed as 47.84 ± 4.99%.

As for `COc1cccc2c1C(=O)c1c(O)c3c(c(O)c1C2=O)C[C@@](O)(C(=O)CO)C[C@@H]3O[C@H]1C[C@H](N)[C@H](O)[C@H](C)O1` [a, doxorubicin, reference compound], the 50% inhibitory concentration (IC50) in data set [1] (MTT, 72 h) amounted to 0.38 ± 0.02 µM; in [2] (MTT, 72 h) it was 0.14 ± 0.01 µM; in data set [3] (MTT, 72 h), 0.46 ± 0.03 µM; in data set [4] (MTT), 0.29 ± 0.02 µM; in data set [5] (MTT, 72 h, non-transformed cells), 6.78 ± 0.76 µM. In data set [9], the “% of MDA relative to control” value is 236.68 ± 13.06%. Besides, the figures for the “Work … % Decrease in OCR of Control, II” value in data set [6] and in data set [6] (listed as doxorubicin) were 70.54 ± 0.64% and “more than 70%”, respectively. Further, in [7], the “Work … % Decrease in OCR of Control, IV” value came to 37.73 ± 0.34%. Moreover, the “Mitochondrial Swelling, %” value in data set [8] amounted to 116.20 ± 10.98%.

On to `COc1cccc2c1C(=O)c1c(O)c3c(c(O)c1C2=O)C[C@@](O)(C(C)=O)C[C@@H]3O[C@H]1C[C@H](N)[C@H](O)[C@H](C)O1` [b, daunorubicin, reference compound], for which the half-inhibitory concentration (IC50) was determined as 0.33 ± 0.01 µM in data set [1]; 0.12 µM in data set [2]; 0.84 ± 0.17 µM in data set [3]; 0.63 ± 0.03 µM in [4]; 12.3 ± 1.17 µM in data set [5]. Besides, the “% of MDA relative to control” value in [9] is on record as 226.05 ± 6.60%. For the same compound, the “Work … % Decrease in OCR of Control, II” value in data set [6] is on record as 72.12 ± 0.96%; in [6] (listed as daunorubicin) it was “more than 70%”. Besides, in [7], the “Work … % Decrease in OCR of Control, IV” value is “— (“—” indicates activity absence for compounds (≤10%) in a particular test)”. Besides, in data set [8], the “Mitochondrial Swelling, %” value came to 40.98 ± 3.86%.

The term melting point denotes the temperature, or range, at which the solid turns liquid. Broadly, the IC50 is the concentration needed to halve the response being measured.

For the origin of these results see PMC8153121, “N-Alkylation of Anthracycline Antibiotics by Natural Sesquiterpene Lactones as a Way to Obtain Antitumor Agents with Reduced Side Effects” (Biomedicines, 2021).
